# Measured values reported in patent US20220033363A1, “HERBICIDALLY ACTIVE SUBSTITUTED PHENYLPYRIMIDINE HYDRAZIDES” (Bayer Aktiengesellschaft, priority 2018, published 2022).
# Tests used:
# Format in all cases: in vivo
# Echinochloa crus-galli [1] = assay: Herbicidal post-emergence action (Method A) against ECHCG; settings: rated visually after about 3 weeks vs untreated controls; for pest or weed control at 1280 g/ha: Echinochloa crus-galli, post-emergence, 504 h
# Procedure: (§1) Method A: Herbicidal Post-Emergence Action Seeds of mono- and dicotyledonous weed plants are placed in plastic pots in sandy loam soil (twin sowing with one species each of mono- or dicotyledonous weed plants per pot), covered with soil and cultivated in a greenhouse under controlled growth conditions. 2 to 3 weeks after sowing, the test plants are treated at the one-leaf stage. The compounds of the invention, formulated in the form of wettable powders (WP) or as emulsion concentrates (EC), are applied to the green parts of the plants as aqueous suspension or emulsion with addition of 0.5% additive at a water application rate equivalent to 600 liters per hectare. After the test plants have been kept in the greenhouse under optimum growth conditions for about 3 weeks, the activity of the preparations is rated visually in comparison to untreated controls. For example, 100% activity=the plants have died, 0% activity=like control plants.
# Lolium rigidum [2] = assay: Herbicidal post-emergence action (Method A) against LOLRI; settings: rated visually after about 3 weeks vs untreated controls; for pest or weed control at 1280 g/ha: Lolium rigidum, post-emergence, 504 h
# Procedure: as §1
# Poa annua [3] = assay: Herbicidal post-emergence action (Method A) against POAAN; settings: 504 h, rated visually after about 3 weeks vs untreated controls; for pest or weed control at 320 g/ha: read-out: Post-emergence action at 320 g/ha against POANN; for pest or weed control at 1280 g/ha: read-out: Post-emergence action at 1280 g/ha against POANN
# Procedure: as §1
# Stellaria media [4] = assay: Herbicidal post-emergence action (Method A) against STEME; settings: 504 h, rated visually after about 3 weeks vs untreated controls
# Procedure: as §1
# Echinochloa crus-galli [5] = assay: Herbicidal pre-emergence action (Method B) against ECHCG; settings: 504 h, scored visually after about 3 weeks vs untreated controls
# Description: (§2) Method B: Herbicidal Pre-Emergence Action Seeds of mono- and dicotyledonous weed plants are placed in plastic pots in sandy loam soil (doubly sown with one species each of mono- or dicotyledonous weed plants per pot) and covered with soil. The compounds of the invention, formulated in the form of wettable powders (WP) or as emulsion concentrates (EC), are then applied onto the surface of the covering soil as aqueous suspension or emulsion with addition of 0.5% additive at a water application rate equivalent to 600 liters per hectare. After the treatment, the pots are placed in a greenhouse and kept under good growth conditions for the trial plants. After about 3 weeks, the effect of the preparations is scored visually in comparison with untreated controls as percentages. For example, 100% action=the plants have died, 0% action=like control plants.
# Lolium rigidum [6] = assay: Herbicidal pre-emergence action (Method B) against LOLRI; settings: 504 h, scored visually after about 3 weeks vs untreated controls
# Description: as §2
# Poa annua [7] = assay: Herbicidal pre-emergence action (Method B) against POAAN; settings: 504 h, scored visually after about 3 weeks vs untreated controls
# Description: as §2
# Setaria viridis = assay: Herbicidal pre-emergence action (Method B) against SETVI; settings: 1280 g/ha, scored visually after about 3 weeks vs untreated controls
# Description: as §2
# Matricaria inodora [8] = assay: Herbicidal pre-emergence action (Method B) against MATIN; settings: Tripleurospermum inodorum, 504 h, scored visually after about 3 weeks vs untreated controls
# Description: as §2
# Stellaria media [9] = assay: Herbicidal pre-emergence action (Method B) against STEME; settings: 504 h; for pest or weed control at 320 g/ha: dosage 320 g/ha; for pest or weed control at 1280 g/ha: dosage 1280 g/ha
# Description: as §2
# harmful plants [10] = assay: Herbicidal pre-emergence action (Method B), summary statement; settings: summary of tables B1-B12 (Method B)
# Description: as §2
# Matricaria inodora [11] = assay: Herbicidal post-emergence action (Method A) against MATIN; settings: 1280 g/ha; rated visually after about 3 weeks vs untreated controls
# Procedure: as §1
# Abutilon theophrast [12] = assay: Herbicidal post-emergence action (Method A) against ABUTH; settings: rated visually after about 3 weeks vs untreated controls
# Procedure: as §1
# harmful plants [13] = assay: Herbicidal post-emergence action (Method A), summary statement; settings: summary of tables A1-A11
# Procedure: as §1
# Amaranthus retroflexus = assay: Herbicidal post-emergence action (Method A) against AMARE; settings: rated visually after about 3 weeks vs untreated controls
# Procedure: as §1
# Abutilon theophrast [14] = assay: Herbicidal pre-emergence action (Method B) against ABUTH; settings: 1280 g/ha, scored visually after about 3 weeks vs untreated controls
# Description: as §2
SMILES,pest or weed control at 1280 g/ha (Echinochloa crus-galli [1]),pest or weed control at 1280 g/ha (Lolium rigidum [2]),pest or weed control at 320 g/ha (Poa annua [3]),pest or weed control at 1280 g/ha (Poa annua [3]),pest or weed control at 320 g/ha (Stellaria media [4]),pest or weed control at 1280 g/ha (Stellaria media [4]),pest or weed control at 320 g/ha (Echinochloa crus-galli [5]),pest or weed control at 1280 g/ha (Echinochloa crus-galli [5]),pest or weed control at 320 g/ha (Lolium rigidum [6]),pest or weed control at 1280 g/ha (Lolium rigidum [6]),pest or weed control at 320 g/ha (Poa annua [7]),pest or weed control at 1280 g/ha (Poa annua [7]),pest or weed control at 1280 g/ha (Matricaria inodora [8]),pest or weed control at 320 g/ha (Stellaria media [9]),pest or weed control at 1280 g/ha (Stellaria media [9]),Post-emergence action at 1280 g/ha against MATIN (Matricaria inodora [11]),other results
"NNC(=O)c1nc(C2CC2)ncc1-c1ccccc1Cl [Example I-497, 5-(2-chlorophenyl)-2-cyclopropylpyrimidine-4-carbohydrazide]",100%,100%,100%,100%,100%,100%,100%,100%,90%,100%,100%,100%,100%,100%,100%,–,Pre-emergence action against SETVI (Setaria viridis): 90%; pest or weed control at 320 g/ha (Matricaria inodora [8]; 320 g/ha): 100%; herbicidal efficacy against harmful plants in pre-emergence treatment (harmful plants [10]): good herbicidal efficacy
"O=CNNC(=O)c1nc(C2CC2)ncc1-c1ccccc1Cl [Example I-516, 5-(2-chlorophenyl)-2-cyclopropyl-N′-formylpyrimidine-4-carbohydrazide]",100%,90%,100%,100%,90%,100%,–,100%,100%,100%,100%,100%,100%,100%,100%,90%,Post-emergence action at 320 g/ha against ECHCG (Echinochloa crus-galli [1]; 320 g/ha): 90%; Post-emergence action at 1280 g/ha against ABUTH (Abutilon theophrast [12]): 100%; herbicidal efficacy against harmful plants in the case of post-emergence treatment (harmful plants [13]): good herbicidal efficacy
"O=C(NNC(=O)c1nc(C2CC2)ncc1-c1ccccc1Cl)c1ccccn1 [Example I-527, 5-(2-chlorophenyl)-2-cyclopropyl-N′-(pyridin-2-ylcarbonyl)pyrimidine-4-carbohydrazide]",90%,100%,100%,100%,100%,100%,90%,100%,90%,100%,100%,100%,–,100%,100%,90%,Post-emergence action at 320 g/ha against LOLRI (Lolium rigidum [2]; 320 g/ha): 100%; Post-emergence action at 1280 g/ha against AMARE (Amaranthus retroflexus): 100%; Pre-emergence action against ABUTH (Abutilon theophrast [14]): 90%
